According to patent publication US20140249097A1, “Inhibition of HIF-1 activation for Anti-Tumor and Anti-Inflammatory responses” (priority 2010, published 2014):
Counter-ions that a name gives are not always drawn.

Assays:
iNOS [1] = assay: Western blotting of iNOS in 4T1ODD-luc cells; assay type: cell-based, mouse
Method: (§1) Cell nuclear proteins were extracted using the NucBuster protein extraction kit (Novagen, Gibbstown, N.J., United States of America). Total cell lysates or cell nuclear extractions were quantified using a protein assay reagent (Bio-Rad). Equal amounts of protein sample were separated by Bis-HCl gel (Bio-Rad) and transferred to a […] Immun-Blot PVDF membrane (Bio-Rad).

VEGF = assay: Mouse VEGF ELISA of 4T1ODD-luc conditioned medium; assay type: cell-based; details: normoxic, doxorubicin 0.1, 1, and 10 μg/ml
Method: 1×10^5 4 T1ODD-luc cells per well of 12-well plate were cultured with 1 ml cell culture medium overnight. The cells were treated with 0.1, 1, or 10 μg/ml of doxorubicin or without doxorubicin for 24, 48, and 72 hours. Secreted mouse VEGF in the conditioned medium at each time point was quantified by mouse VEGF ELISA kit (R & D Systems, Minneapolis, Minn., United States of America) and normalized to the number of living cells.

nitric oxide = assay: Flow cytometry of intracellular nitric oxide (DAF-FM) in 4T1ODD-luc cells; assay type: cell-based, mouse; details: 1 μg/ml and 5 μg/ml doxorubicin, 48 hours, vs control
Method: To detect intracellular nitric oxide levels, 1×10^6 4 T1ODD-luc cells were plated per 10-cm cell culture dish with 8 ml of cell culture medium. Doxorubicin (1 μg/ml and 5 μg/ml) or an equal volume of control solvent was added into the cell culture medium the next day and treatment continued for 48 hours. […] Equal amounts of solvent were added for the control group. To quantify intracellular nitric oxide, a single cell suspension was made after trypsinization. 2 ml of 5 uM nitric oxide-specific probe DAF-FM diacetate (4-amino-5-methylamino-2′,7′-difluorofluorescein diacetate) (Invitrogen) were incubated with each cell sample at room temperature in darkness for 30 minutes. The cells were washed with PBS and centrifuged to remove the excess DAF-FM diacetate probe. The cells were resuspended into 500 ul of phenol-free DMEM and incubated for another 20 minutes for complete intracellular deacetylation of the probe. The mean fluorescence intensity of the deacetylated DAF-FM reacted with nitric oxide was quantified by FACSCalibur flow cytometer in FITC channel (Becton Dickinson, Franklin Lakes, N.J., United States of America).

STAT1 = assay: Western blotting of STAT1 and phospho-STAT1 in 4T1ODD-luc cells; assay type: cell-based, mouse; details: doxorubicin 1 μg/ml
Method: as §1

HIF-1α [2] = assay: HIF-1α ODD-luciferase reporter in normoxic 4T1ODD-luc cells; assay type: cell-based, mouse
Method: (§2) HIF-1α ODD-luciferase reporter activity was detected and quantified by the Xenogen IVIS bioluminescence imaging system (Xenogen Corporation, Alameda, Calif., United States of America) as previously described (Li et al., 2007). For in vitro imaging of cultured cells, 1×10^5 4 T1ODD-luc cells per well of 12-well plates were cultured with 2 ml culture medium for 24 hours. Then the cells were treated with doxorubicin hydrochloride (0.1, 1, or 10 μg/ml, Bedford Laboratories, Bedford, Ohio, United States of America) or an equal volume of control vehicle for 3 days under normoxic conditions (21% O2, 5% CO2). […] The activity of HIF-1α luciferase reporter was quantified daily. In animal studies, the bioluminescence of each tumor was detected on day 0 (before doxorubicin treatment) and on post-treatment days 1-7, 10, 13, and 16. During each imaging session mice were anesthetized with inhaled isoflurane and imaged 10 minutes after intraperitoneal (i.p.) injection of luciferin (150 mg/kg). Tumor bioluminescence intensity was normalized to the tumor volume at each time point.

perfused tumor fraction = assay: Hoechst 33342 labeling of tumor perfusion in orthotopic 4T1ODD-luc tumors; assay type: in vivo, mice; details: doxorubicin-treated vs control tumors
Method: (§3) Five mice from a doxorubicin-treated group or a control group that received saline were sacrificed on days 0, 1, 4, 7 and 16. The hypoxia marker pimonidazole (70 mg/kg i.p., NPI, Raleigh, N.C., United States of America) and the perfusion marker dye Hoechst 33342 (1 mg/mouse i.v., Sigma-Aldrich) were administered as previously described (Cao et al., 2005). Upon excision, tumors were snap-frozen in liquid nitrogen, stored at −80° C., and cut into 10 μm frozen sections. HIF-1α fluorescent staining was performed with anti-HIF-1α antibody (Novus). Direct pimonidazole labeling was performed using Hypoxyprobe (mouse monoclonal IgG1, NPI, Raleigh, N.C., United States of America) and Zenon Alexa Fluor 555 mouse IgG labeling kit (Invitrogen). Entire tumor sections were imaged by scanning fluorescent microscopy. Individual scanned images were then reconstructed into one composite image of the entire section by Metamorph. […] Eight random fields (10×) per frozen section were analyzed to determine the mean tumor vascular fraction as the percentage of vessel area in total tumor area in each field. Cell proliferation was determined by immunostaining with a rabbit polyclonal anti-Ki67 antibody (ab15580, 1:100 dilution, Abcam, Cambridge, Massachusettes, United States of America) and an Alexa 594-conjugated goat anti-rabbit IgG antibody (1:300 dilution, Invitrogen). […]

HIF-1α [3] = assay: Bioluminescent imaging of orthotopic 4T1ODD-luc tumors in nude mice; assay type: in vivo
Method: as §2
5×10^6 4 T1ODD-luc tumor cells in 200 μl PBS were injected orthotopically in the right thoracic mammary fat pad of female NCr/nu nude mice (Moeller et al., 2004). Tumor volumes were calculated as follows: volume=(length×width^2×π)/6. When tumor size reached 7 mm in diameter, animals were randomized into two groups: the control mice were injected with 100 μl saline and the treated mice were injected once with the maximal tolerated dose (MTD) of doxorubicin (10 mg/kg) via tail vein (Vanhoefer et al., 1997). Tumor volume and luciferase reporter activity in vivo were measured on days 0, 1-7, 10, 13 and 16.

HIF-1α [4] = assay: Western blotting of HIF-1α in 4T1ODD-luc cells; assay type: cell-based, mouse; details: normoxic, total cell lysate and nuclear extraction, 48 hours post-treatment
Method: as §1

HIF-1α [5] = assay: Western blotting of HIF-1α in MCF-7 cells; assay type: cell-based, human; details: normoxic MCF-7 cells
Method: as §1

hypoxic tumor fraction = assay: Pimonidazole staining of tumor hypoxia in orthotopic 4T1ODD-luc tumors; assay type: in vivo, mice; details: doxorubicin-treated vs control tumors
Method: as §3

[6] = tested on: tumor-activated macrophages; assay: CD68 staining of tumor-activated macrophages in orthotopic 4T1ODD-luc tumors; assay type: in vivo, mice; details: doxorubicin-treated vs saline-treated tumors
Method: as §3

iNOS [7] = assay: Real-time PCR of iNOS mRNA in 4T1ODD-luc cells; assay type: cell-based, mouse; details: doxorubicin vs control treatment
Method: Total RNA was prepared using the miRVana extraction kit (Applied Biosystems, Austin, Tex., United States of America). 1 μg of total RNA was reverse transcribed into cDNA using the iScript cDNA synthesis kit (BioRad, Hercules, Calif., United States of America). Real-time PCR was performed on an ABI7900HT Fast Real-Time PCR System using Power SYBRGreen PCR Mix (Applied Biosystems). PCR products were verified by melting curves. The threshold cycle (CT) values for each gene were normalized to expression levels of β-actin. The primers used were as follows: mouse iNOS, forward 5′-[…]-3′ (SEQ ID NO: 22); reverse 5′-[…]-3′ (SEQ ID NO: 23); the same β-actin primers were used for both human and mouse cell lines, forward 5′-[…]-3′ (SEQ ID NO: 24); and reverse 5′-[…]-3′ (SEQ ID NO: 25).

tumor vasculature = assay: Fluorescent staining of tumor vasculature in orthotopic 4T1ODD-luc tumors; assay type: in vivo, mice
Method: Five mice from a doxorubicin-treated group or a control group that received saline were sacrificed on days 0, 1, 4, 7 and 16. The hypoxia marker pimonidazole (70 mg/kg i.p., NPI, Raleigh, N.C., United States of America) and the perfusion marker dye Hoechst 33342 (1 mg/mouse i.v., Sigma-Aldrich) were administered as previously described (Cao et al., 2005). Upon excision, tumors were snap-frozen in liquid nitrogen, stored at −80° C., and cut into 10 μm frozen sections. HIF-1α fluorescent staining was performed with anti-HIF-1α antibody (Novus). Direct pimonidazole labeling was performed using Hypoxyprobe (mouse monoclonal IgG1, NPI, Raleigh, N.C., United States of America) and Zenon Alexa Fluor 555 mouse IgG labeling kit (Invitrogen). Entire tumor sections were imaged by scanning fluorescent microscopy. Individual scanned images were then reconstructed into one composite image of the entire section by Metamorph. Tumor vasculature was stained by fluorescein-labeled Griffonia simplicifolia lectin I (isolectin B4) (1:200 dilution, Vector Laboratories, Burlingame, Calif., United States of America) as previously described (Cao et al., 2007). Eight random fields (10×) per frozen section were analyzed to determine the mean tumor vascular fraction as the percentage of vessel area in total tumor area in each field. Cell proliferation was determined by immunostaining with a rabbit polyclonal anti-Ki67 antibody (ab15580, 1:100 dilution, Abcam, Cambridge, Massachusettes, United States of America) and an Alexa 594-conjugated goat anti-rabbit IgG antibody (1:300 dilution, Invitrogen). Tumor activated macrophages were stained with rat anti-mouse CD68 antibody (1:100 dilution, Serotec, Raleigh, N.C., United States of America) and an Alexa 488-conjugated anti-rat IgG antibody (1:200 dilution, Invitrogen).

HIF-1α [8] = assay: Immunohistochemical staining of HIF-1α in orthotopic 4T1ODD-luc tumors; assay type: in vivo, mice; details: MTD doxorubicin vs saline, post-treatment days 1, 4, and 7
Method: as §3

## COc1cccc2c1C(=O)c1c(O)c3c(c(O)c1C2=O)C[C@@](O)(C(=O)CO)C[C@@H]3O[C@H]1C[C@H](N)[C@H](O)[C@H](C)O1 [doxorubicin, doxorubicin hydrochloride]
iNOS [1]; doxorubicin 1 μg/ml, normoxic conditions
  iNOS expression: stimulated iNOS expression
iNOS [1]; doxorubicin alone, first 24 hours post-treatment
  iNOS expression: initial decrease in iNOS expression
iNOS [1]; doxorubicin, 48 hours post-treatment
  iNOS expression: increase in iNOS expression
VEGF
  secreted VEGF level: significantly elevated the secreted VEGF level
Nitric oxide
  intracellular NO levels: increased intracellular NO levels
STAT1
  STAT1 expression: upregulated the expression of STAT1
  STAT1 phosphorylation (Tyr701 and Ser727): promoted the activation of STAT1
HIF-1α [2]; 1 μg/ml doxorubicin
  HIF-1α reporter activity, comparison of concentrations: most potent upregulation
HIF-1α [2]; doxorubicin 0.1, 1, or 10 μg/ml, 48 hours post-treatment
  HIF-1α reporter activity: significant increase in HIF-1α reporter activity
Perfused tumor fraction
  perfused tumor fraction (Hoechst 33342 labeling): no significant difference
HIF-1α [3]; doxorubicin 10 mg/kg i.v. once vs saline, day 16
  HIF-1α reporter activity in tumors on day 16: fell to a level similar to that in the control tumors
HIF-1α [3]; doxorubicin 10 mg/kg i.v. once vs saline, from 3 days post-treatment
  HIF-1α reporter activity in tumors: significantly elevated the HIF-1α reporter activity
HIF-1α [3]; in vivo
  peak in HIF-1 activation after doxorubicin treatment: 3 to 5 days
HIF-1α [3]; mouse, in vivo
  temporal course of doxorubicin-induced normoxic HIF-1α accumulation: 3-5 days post-treatment
HIF-1α [4]
  HIF-1α protein expression: enhanced
HIF-1α [5]
  HIF-1α protein: led to normoxic HIF-1α accumulation
Hypoxic tumor fraction
  hypoxic tumor fraction (pimonidazole staining): no significant difference
[6]
  fraction of tumor-activated macrophages (CD68): no significant difference
iNOS [7]
  iNOS mRNA level: significantly enhanced iNOS transcription
Tumor vasculature; doxorubicin vs control, first 24 hours
  relative tumor vascular fraction: significant decrease in tumor vascular fraction
Tumor vasculature; doxorubicin vs saline, day 4 post-treatment
  tumor vessels by fluorescent staining: more tumor vessels
Tumor vasculature; doxorubicin vs saline, day 16
  relative tumor vascular fraction: still significantly higher compared to the saline-treated tumors
Tumor vasculature; doxorubicin-treated tumors, post-treatment day 4 (peak)
  mean relative tumor vascular fraction: even higher than before chemotherapy treatment
HIF-1α [8]
  tumor HIF-1α positive fraction: significantly increased the HIF-1α fraction
